Assay [1] has as its system human NOD2 signaling. Briefly: Inhibition of human NOD2 signaling in HEK-Blue-hNOD2 cells (L18-MDP stimulated, SEAP reporter). Particulars: Homo sapiens, HEK-Blue hNOD2, HEK-Blue-hNOD2 cells, NOD2 ligand stimulation, SEAP reporter; read-out: hNOD2 IC50. The class given is cell-based. In a few lines: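 Read-out is SEAP absorbance at 620 nm after 3 h QUANTI-Blue development of supernatant from HEK293 cells carrying NOD2 and a SEAP reporter (12500/well). Cells got compound (10 points, 3-fold dilutions) and 0.5 ng/mL L18-MDP for 24 h at 37 °C; percent inhibition vs stimulated/unstimulated controls, 4-parameter IC50.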

In assay [2] the target is T1, RIPK2 enzyme (Homo sapiens, UniProt O43353).
T1 construct: purchased Carna 09-128
Briefly: RIPK2 inhibition (ADP-Glo Kinase Assay). To be noted: RIPK2 5 nM, ATP 150 μM, MBP substrate, read-out: RIPK2 IC50. The class given is biochemical. In a few lines: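 Swine MBP substrate; compound and 5 nM RIPK2 first mixed for 30 min at room temperature; buffer pH 7.5 HEPES 50 mM with 10 mM MgCl2, 2 mM DTT, 1 mM EGTA, Brij-35, BSA.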
In general terms: In ADP-Glo the light output rises with the ADP produced.

The text below walks through data of US12624018B1, “Inhibitors of RIPK2 and medical uses thereof” (Odyssey Therapeutics, Inc., priority 2022, dated 2026).

Usually IC50 stands for the point on the concentration scale where inhibition reaches its midpoint.

T1 sequence (O43353 1-299 limits assumed): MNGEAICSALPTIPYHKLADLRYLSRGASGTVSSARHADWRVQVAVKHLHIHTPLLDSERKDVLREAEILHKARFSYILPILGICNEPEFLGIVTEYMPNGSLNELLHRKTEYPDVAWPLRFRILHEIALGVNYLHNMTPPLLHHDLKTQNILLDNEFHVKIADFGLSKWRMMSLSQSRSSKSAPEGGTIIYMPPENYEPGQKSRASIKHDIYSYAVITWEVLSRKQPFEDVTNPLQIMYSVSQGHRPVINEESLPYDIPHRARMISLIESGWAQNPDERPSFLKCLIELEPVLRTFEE

For the molecule `CNC(=O)C(F)(F)c1ccc2nccc(Oc3cc(F)c(CC(=O)Nc4cnn(C(C)(C)C)c4)cc3C)c2c1` [Compound 573, 2-(4-(4-(2-((1-(tert-butyl)-1H-pyrazol-4-yl)amino)-2-oxoethyl)-5-fluoro-2-methylphenoxy)quinolin-6-yl)-2,2-difluoro-N-methylacetamide], the IC50 in assay [1] was 1 nM; in assay [2], under 2.5 nM.

With `[2H]C([2H])([2H])NC(=O)c1ccc2nccc(Oc3ccc(CC(=O)Nc4cnn(C(C)(C)C)c4)cc3C(F)F)c2c1` [Compound 574, 4-(4-(2-((1-(tert-butyl)-1H-pyrazol-4-yl)amino)-2-oxoethyl)-2-(difluoromethyl)phenoxy)-N-(methyl-d3)quinoline-6-carboxamide], the 50% inhibitory concentration (IC50) in assay [1] was 3.2 nM; in assay [2] it was under 2.5 nM.

With `CC(C)(C)n1cc(NC(=O)Cc2ccc(Oc3ccnc4cc(F)c(C(N)=O)cc34)c(C(F)F)c2)cn1` [Compound 575, 4-(4-(2-((1-(tert-butyl)-1H-pyrazol-4-yl)amino)-2-oxoethyl)-2-(difluoromethyl)phenoxy)-7-fluoroquinoline-6-carboxamide], the IC50 is 2.2 nM in assay [1] and under 2.5 nM in assay [2].

For `CNC(=O)c1cc2c(Oc3ccc(CC(=O)Nc4cnn(C(C)(C)C)c4)cc3C(F)F)ccnc2cc1F` [Compound 576, 4-(4-(2-((1-(tert-butyl)-1H-pyrazol-4-yl)amino)-2-oxoethyl)-2-(difluoromethyl)phenoxy)-7-fluoro-N-methylquinoline-6-carboxamide], the IC50 in assay [1] is 5.2 nM; in assay [2] it was under 2.5 nM.

Consider `[2H]C([2H])([2H])NC(=O)c1cc2c(Oc3ccc(CC(=O)Nc4cnn(C(C)(C)C)c4)cc3C(F)F)ccnc2cc1F` [Compound 577, 4-(4-(2-((1-(tert-butyl)-1H-pyrazol-4-yl)amino)-2-oxoethyl)-2-(difluoromethyl)phenoxy)-7-fluoro-N-(methyl-d3)quinoline-6-carboxamide], for which the figures for the IC50 in assay [1] and in assay [2] were 2 nM and under 2.5 nM, respectively.

With `COc1cc2nccc(Oc3ccc(CC(=O)Nc4cnn(C(C)(C)C)c4)cc3C(F)F)c2cc1C(N)=O` [Compound 578, 4-(4-(2-((1-(tert-butyl)-1H-pyrazol-4-yl)amino)-2-oxoethyl)-2-(difluoromethyl)phenoxy)-7-methoxy-quinoline-6-carboxamide], the figures for the IC50 in assay [1] and in assay [2] were 0.7 nM and under 2.5 nM, respectively.

In the case of `CNC(=O)c1cc2c(Oc3ccc(CC(=O)Nc4cnn(C(C)(C)C)c4)cc3C(F)F)ccnc2cc1OC` [Compound 579, 4-(4-(2-((1-(tert-butyl)-1H-pyrazol-4-yl)amino)-2-oxoethyl)-2-(difluoromethyl)phenoxy)-7-methoxy-N-methylquinoline-6-carboxamide], the IC50 in assay [1] was 0.8 nM; in assay [2], under 2.5 nM.

For `[2H]C([2H])([2H])NC(=O)c1cc2c(Oc3ccc(CC(=O)Nc4cnn(C(C)(C)C)c4)cc3C(F)F)ccnc2cc1OC` [Compound 580, 4-(4-(2-((1-(tert-butyl)-1H-pyrazol-4-yl)amino)-2-oxoethyl)-2-(difluoromethyl)phenoxy)-7-methoxy-N-(methyl-d3)quinoline-6-carboxamide], the results for the IC50 in assay [1] and in assay [2] were 1.2 nM and under 2.5 nM, respectively.

Take `[2H]C([2H])([2H])NC(=O)c1cc2c(Oc3c(C)cc(CC(=O)Nc4cnn(C(C)(C)C)c4)cc3Cl)ccnc2cc1F` [Compound 586, 4-(4-(2-((1-(tert-butyl)-1H-pyrazol-4-yl)amino)-2-oxoethyl)-2-chloro-6-methylphenoxy)-7-fluoro-N-(methyl-d3)quinoline-6-carboxamide]: the IC50 in assay [1] was 0.6 nM; in assay [2], under 2.5 nM.

Turning to `Cc1cc(CC(=O)Nc2cnn(C34CC(C3)C4)c2)cc(C)c1Oc1ccnc2ccc(C(N)=O)cc12` [Compound 587, 4-(4-(2-((1-(bicyclo[1.1.1]pentan-1-yl)-1H-pyrazol-4-yl)amino)-2-oxoethyl)-2,6-dimethylphenoxy)quinoline-6-carboxamide], the half-maximal inhibitory concentration (IC50) in assay [1] was 28.6 nM; in assay [2], under 2.5 nM.

As for `CNC(=O)c1ccc2nccc(Oc3c(C)cc(CC(=O)Nc4cnn(C56CC(C5)C6)c4)cc3C)c2c1` [Compound 588, 4-(4-(2-((1-(bicyclo[1.1.1]pentan-1-yl)-1H-pyrazol-4-yl)amino)-2-oxoethyl)-2,6-dimethylphenoxy)-N-methylquinoline-6-carboxamide], the figures for the IC50 in assay [1] and in assay [2] were 36 nM and under 2.5 nM, respectively.

For `[2H]C([2H])([2H])NC(=O)c1ccc2nccc(Oc3c(C)cc(CC(=O)Nc4cnn(C56CC(C5)C6)c4)cc3C)c2c1` [Compound 589, 4-(4-(2-((1-(bicyclo[1.1.1]pentan-1-yl)-1H-pyrazol-4-yl)amino)-2-oxoethyl)-2,6-dimethylphenoxy)-N-(methyl-d3)quinoline-6-carboxamide], the values for the IC50 in assay [1] and in assay [2] were 48.6 nM and under 2.5 nM, respectively.

Turning to `Cc1cc(CC(=O)Nc2cnn(C34CC(C3)C4)c2)cc(Cl)c1Oc1ccnc2ccc(C(N)=O)cc12` [Compound 590, 4-(4-(2-((1-(bicyclo[1.1.1]pentan-1-yl)-1H-pyrazol-4-yl)amino)-2-oxoethyl)-2-chloro-6-methylphenoxy)quinoline-6-carboxamide], the IC50 in assay [1] is 31.2 nM; in assay [2] it was under 2.5 nM.

On to `CNC(=O)c1ccc2nccc(Oc3c(C)cc(CC(=O)Nc4cnn(C56CC(C5)C6)c4)cc3Cl)c2c1` [Compound 591, 4-(4-(2-((1-(bicyclo[1.1.1]pentan-1-yl)-1H-pyrazol-4-yl)amino)-2-oxoethyl)-2-chloro-6-methylphenoxy)-N-methylquinoline-6-carboxamide], for which the IC50 in assay [1] is 46.7 nM; in assay [2], under 2.5 nM.

Turning to `[2H]C([2H])([2H])NC(=O)c1ccc2nccc(Oc3c(C)cc(CC(=O)Nc4cnn(C56CC(C5)C6)c4)cc3Cl)c2c1` [Compound 592, 4-(4-(2-((1-(bicyclo[1.1.1]pentan-1-yl)-1H-pyrazol-4-yl)amino)-2-oxoethyl)-2-chloro-6-methylphenoxy)-N-(methyl-d3)quinoline-6-carboxamide], the results for the IC50 in assay [1] and in assay [2] were 80.2 nM and 2.8 nM, respectively.

For `[2H]C([2H])([2H])C(n1cc(NC(=O)Cc2cc(C)c(Oc3ccnc4cc(F)c(C(=O)NC)cc34)cc2F)cn1)(C([2H])([2H])[2H])C([2H])([2H])[2H]` [Compound 596, 7-fluoro-4-(5-fluoro-2-methyl-4-(2-((1-(2-(methyl-d3)propan-2-yl-1,1,1,3,3,3-d6)-1H-pyrazol-4-yl)amino)-2-oxoethyl)phenoxy)-N-methylquinoline-6-carboxamide], the IC50 in assay [1] is 0.7 nM; in assay [2], under 2.5 nM.

Turning to `[2H]C([2H])([2H])C(n1cc(NC(=O)Cc2ccc(Oc3ccnc4ccc(S(C)(=O)=O)cc34)c(C)c2)cn1)(C([2H])([2H])[2H])C([2H])([2H])[2H]` [Compound 597, 2-(3-methyl-4-((6-(methylsulfonyl)quinolin-4-yl)oxy)phenyl)-N-(1-(2-(methyl-d3)propan-2-yl-1,1,1,3,3,3-d6)-1H-pyrazol-4-yl)acetamide], the figures for the IC50 in assay [1] and in assay [2] were 1.3 nM and under 2.5 nM, respectively.

As for `Cc1cc(CC(=O)Nc2cnn(C(C)(C)C)c2)cc(F)c1Oc1ccnc2cc(F)c(C(N)=O)cc12` [Compound 598, 4-(4-(2-((1-(tert-butyl)-1H-pyrazol-4-yl)amino)-2-oxoethyl)-2-fluoro-6-methylphenoxy)-7-fluoroquinoline-6-carboxamide], the half-inhibitory concentration (IC50) is 2.3 nM in assay [1] and under 2.5 nM in assay [2].

With `CNC(=O)c1cc2c(Oc3c(C)cc(CC(=O)Nc4cnn(C(C)(C)C)c4)cc3F)ccnc2cc1F` [Compound 599, 4-(4-(2-((1-(tert-butyl)-1H-pyrazol-4-yl)amino)-2-oxoethyl)-2-fluoro-6-methylphenoxy)-7-fluoro-N-methylquinoline-6-carboxamide], the IC50 in assay [1] was 1.7 nM; in assay [2], under 2.5 nM.

As for `[2H]C([2H])([2H])NC(=O)c1cc2c(Oc3c(C)cc(CC(=O)Nc4cnn(C(C)(C)C)c4)cc3F)ccnc2cc1F` [Compound 600, 4-(4-(2-((1-(tert-butyl)-1H-pyrazol-4-yl)amino)-2-oxoethyl)-2-fluoro-6-methylphenoxy)-7-fluoro-N-(methyl-d3)quinoline-6-carboxamide], the results for the IC50 in assay [1] and in assay [2] were 1.4 nM and under 2.5 nM, respectively.

Regarding `[2H]C([2H])([2H])C(n1cc(NC(=O)Cc2cc(C)c(Oc3ccnc4cc(F)c(C(=O)NC)cc34)c(F)c2)cn1)(C([2H])([2H])[2H])C([2H])([2H])[2H]` [Compound 601, 7-fluoro-4-(2-fluoro-6-methyl-4-(2-((1-(2-(methyl-d3)propan-2-yl-1,1,1,3,3,3-d6)-1H-pyrazol-4-yl)amino)-2-oxoethyl)phenoxy)-N-methylquinoline-6-carboxamide], the IC50 in assay [1] was 1.4 nM; in assay [2] it was under 2.5 nM.

Take `Cc1cc(CC(=O)Nc2cnn(C(C)(C)C)c2)cc(F)c1Oc1ccnc2cc(Cl)c(C(N)=O)cc12` [Compound 602, 4-(4-(2-((1-(tert-butyl)-1H-pyrazol-4-yl)amino)-2-oxoethyl)-2-fluoro-6-methylphenoxy)-7-chloroquinoline-6-carboxamide]: the IC50 in assay [1] was 8 nM; in assay [2], under 2.5 nM.

For `Cc1cc(CC(=O)Nc2cnn(C(C)(C)C)c2)ccc1Oc1ccnc2ccc(C3(C(N)=O)CC3)cc12` [Compound 603, 1-(4-(4-(2-((1-(tert-butyl)-1H-pyrazol-4-yl)amino)-2-oxoethyl)-2-methylphenoxy)quinolin-6-yl)cyclopropane-1-carboxamide], the results for the 50% inhibitory concentration (IC50) in assay [1] and in assay [2] were 2.5 nM and under 2.5 nM, respectively.
